PubChem BioAssay (NCI)
Values joined by “and” are separate entries in the source; they are usually repeats but may differ in a detail not shown here. Equal values may be shown once.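 48-hour exposure; five concentrations; linearly interpolated endpoints. Here, GI50 denotes the concentration required for 50% inhibition of growth. TGI: total growth inhibition.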

Tests used:
Assay in all cases: NCI tumour cell line growth inhibition, 48 h
CCRF-CEM leukemia = system: CCRF-CEM leukemia
EKVX NSCLC = system: EKVX NSCLC
K-562 leukemia = system: K-562 leukemia
LOX IMVI melanoma = system: LOX IMVI melanoma
SW-620 colon = system: SW-620 colon
TK-10 renal = system: TK-10 renal
HS 578T breast = system: HS 578T breast
MALME-3M melanoma = system: MALME-3M melanoma
NCI-H522 lung = system: NCI-H522 lung
SN12C renal = system: SN12C renal

| Compound | TGI (CCRF-CEM leukemia) [µM] | TGI (EKVX NSCLC) | TGI (K-562 leukemia) [µM] | TGI (LOX IMVI melanoma) [µM] | TGI (SW-620 colon) [µM] | TGI (TK-10 renal) [µM] | GI50 (CCRF-CEM leukemia) [µM] | GI50 (HS 578T breast) [µM] | TGI (HS 578T breast) [µM] | GI50 (K-562 leukemia) [µM] | GI50 (LOX IMVI melanoma) [µM] | GI50 (MALME-3M melanoma) [µM] | TGI (MALME-3M melanoma) | GI50 (NCI-H522 lung) [µM] | TGI (NCI-H522 lung) | GI50 (SN12C renal) [µM] | TGI (SN12C renal) [µM] | GI50 (SW-620 colon) [µM] | GI50 (EKVX NSCLC) [µM] | GI50 (TK-10 renal) [µM] |
| --- | --- | --- | --- | --- | --- | --- | --- | --- | --- | --- | --- | --- | --- | --- | --- | --- | --- | --- | --- | --- |
| O=C1C(=O)N(C(=O)c2ccc(Cl)c(Cl)c2)c2ccc(Cl)cc21 | > 100 | > 100 µM | > 100 | > 100 | > 100 | > 100 | – | – | – | – | – | – | – | – | – | – | – | – | – | – |
| O=C1OCc2c1cc(F)cc2[N+](=O)[O-] | > 100 | – | > 100 | > 100 | > 100 | – | > 100 | > 100 | > 100 | > 100 | > 100 | 26.8 | 69.6 µM | > 100 | > 100 µM | > 100 | > 100 | > 100 | – | – |
| CN(C)C(=O)/N=c1\ss/c(=N\C(=S)N(C)C)n1-c1ccccc1 | > 48.8 | > 100 µM | > 56.1 | > 46 | > 100 | 84.7 | – | – | – | – | – | – | > 100 µM | – | 8.12 µM | – | > 100 | – | – | – |
| CN=C1Nc2ccc(Cl)cc2C(c2ccccc2)=NN1C | > 100 | > 100 µM | > 100 | > 100 | > 100 | > 100 | – | – | – | – | – | – | > 100 µM | – | > 100 µM | – | > 100 | – | – | – |
| O=C(O)c1ccc2c(c1Nc1ccccc1)C(=O)c1ccccc1C2=O | > 100 | > 100 µM | > 100 | > 100 | > 100 | > 100 | 40.5 | – | – | 68.5 | 28.9 | 54.6 | > 100 µM | – | – | 50.3 | > 100 | 44.1 | 19.9 | 98.5 |
| N/C(=N\N=C\c1cccs1)NO | > 100 | > 100 µM | > 100 | – | > 100 | > 100 | – | – | – | – | – | – | > 100 µM | – | > 100 µM | – | > 100 | – | – | – |
| C#CCOCn1cnc2c(=S)nc[nH]c21 | > 100 | > 100 µM | > 100 | > 100 | > 100 | > 100 | – | – | – | – | – | – | > 100 µM | – | > 100 µM | – | > 100 | – | – | – |
| NC(CNO)C(=O)O (centres undefined) | – | > 100 µM | – | > 100 | > 100 | > 100 | – | – | > 100 | – | – | – | > 100 µM | – | > 100 µM | – | > 100 | – | – | – |
| CCc1ccccc1NC(=O)CCc1n[nH]c(=S)o1 | > 100 | > 100 µM | > 100 | – | 44.1 | > 100 | – | – | – | – | – | – | > 100 µM | – | – | – | > 100 | – | – | – |
| COc1ccc2c(c1)CCc1c(-c3noc4c3CCc3cc(OC)ccc3-4)noc1-2 | – | > 100 µM | > 100 | > 100 | > 100 | > 100 | – | – | > 100 | – | – | – | > 100 µM | – | > 100 µM | – | > 100 | – | – | – |
| CCC1=C(C)/C(=C/c2[nH]c(CBr)c(CC)c2C)N=C1CBr | 9.55 | 49.1 µM | > 100 | > 100 | 25.3 | 37.6 | – | – | – | – | – | – | 41 µM | – | 9.67 µM | – | 28.3 | – | – | – |
| O=c1c2ccccc2nc(-c2ccc(Br)cc2)n1NC1OC(CO)C(O)C(O)C1O (centres undefined) | > 100 | > 100 µM | > 100 | – | > 100 | > 100 | – | – | – | – | – | – | > 100 µM | – | > 100 µM | – | > 100 | – | – | – |
| COc1cc(/C=C2\[C@H]3c4c(c(OC)c(C)c(OC)c4OC)C[C@@H](C(=O)N2Cc2ccccc2)N3C(=O)OC(C)C)c(OC)c(C)c1OC | > 100 | > 100 µM | > 100 | > 100 | > 100 | > 100 | – | – | – | – | – | – | > 100 µM | – | > 100 µM | – | > 100 | – | – | – |
| COc1cc2nc(Sc3c([N+](=O)[O-])ncn3C)[nH]c2cc1OC | – | 80.7 µM | – | > 100 | > 100 | 67.3 | – | – | – | – | – | – | > 100 µM | – | – | – | 41.5 | – | – | – |
| COc1cc2ccc3c4c(OC)cc(OC)c(OC)c4c(=O)n(C)c3c2cc1OC | 2.04 | 16.7 µM and > 48.7 µM | – | 3.8 | 4.43 | > 54.6 | 0.486 | – | – | 0.303 | 1.53 | 13.4 | 16.7 µM and > 49.6 µM | 0.745 | 10.9 µM and > 32.8 µM | 0.532 | – | 1.05 | 5.65 | > 16.7 |
| N.N.N.N.N.N.[I-].[Os] | > 100 | > 100 µM | > 100 | > 100 | > 100 | > 100 | > 100 | – | – | > 100 | > 100 | 38.9 | 96.5 µM | > 100 | > 100 µM | > 100 | > 100 | > 100 | > 100 | > 100 |
| Cc1ccc(S(=O)(=O)/N=c2\ssc(Nc3ccccc3)c2Cl)cc1 | – | 16.9 µM | > 50 | 20.9 | – | 22.8 | – | – | – | 18.4 | 10.2 | – | – | 19.8 | > 50 µM | 8.99 | 25.6 | – | 6.03 | 8.21 |
| CCOC(=O)/C(=C/c1ccc([N+](=O)[O-])cc1)C(=O)c1ccccc1 | 9.11 | 17.4 µM | 28.7 | 3.38 | 4.84 | 6.54 | 3.03 | 3.44 | 12.8 | 3.5 | 1.77 | – | – | 1.7 | 3.51 µM | 1.76 | 3.76 | 2.14 | 4.88 | 2.27 |
| CCCCCCCC/C=C/CCCCCCCC1=NC(C)(C)CN1C(C)C | – | 3.27 µM | 2.39 | – | 2.94 | 2.79 | – | 1.55 | 3.56 | 1.11 | – | 1.63 | 3.27 µM | – | – | 1.46 | 2.78 | 1.59 | 1.56 | 1.45 |
| Oc1ccc(CNCc2ccccc2)c2cccnc12 | 0.343 | > 100 µM | > 100 | > 100 | > 100 | – | – | – | > 100 | – | – | – | – | – | > 100 µM | – | – | – | – | – |
